The first test concerns the target hKIF18A (1-374) (Homo sapiens (Human), UniProt Q8NI77). Kind of test: Inhibition of KIF18A microtubule-dependent ATPase activity (ADP-Glo).
Conditions: not given
hKIF18A (1-374), sequence (Q8NI77 whole entry, looked up): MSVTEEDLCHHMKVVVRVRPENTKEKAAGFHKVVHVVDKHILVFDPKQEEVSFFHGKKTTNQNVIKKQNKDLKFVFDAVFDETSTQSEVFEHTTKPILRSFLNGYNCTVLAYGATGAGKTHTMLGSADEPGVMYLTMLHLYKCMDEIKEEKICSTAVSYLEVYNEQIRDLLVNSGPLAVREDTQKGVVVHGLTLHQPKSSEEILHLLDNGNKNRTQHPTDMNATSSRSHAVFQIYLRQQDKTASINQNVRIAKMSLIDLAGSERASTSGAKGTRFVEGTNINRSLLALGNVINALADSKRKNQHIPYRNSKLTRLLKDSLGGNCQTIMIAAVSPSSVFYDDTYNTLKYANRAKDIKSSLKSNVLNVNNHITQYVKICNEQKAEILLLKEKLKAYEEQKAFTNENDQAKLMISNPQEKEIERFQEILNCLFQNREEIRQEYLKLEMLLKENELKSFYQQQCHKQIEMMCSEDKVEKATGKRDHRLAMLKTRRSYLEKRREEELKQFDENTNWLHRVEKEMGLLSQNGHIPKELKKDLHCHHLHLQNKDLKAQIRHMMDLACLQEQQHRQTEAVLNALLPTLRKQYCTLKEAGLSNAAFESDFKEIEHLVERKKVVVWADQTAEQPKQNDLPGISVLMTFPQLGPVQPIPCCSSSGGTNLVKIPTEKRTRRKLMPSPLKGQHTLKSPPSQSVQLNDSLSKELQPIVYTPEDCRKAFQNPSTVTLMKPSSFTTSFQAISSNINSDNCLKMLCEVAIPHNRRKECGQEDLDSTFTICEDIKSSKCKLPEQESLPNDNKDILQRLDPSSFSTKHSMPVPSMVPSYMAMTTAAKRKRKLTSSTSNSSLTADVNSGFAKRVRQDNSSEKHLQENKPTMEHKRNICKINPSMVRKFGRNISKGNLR
hKIF18A (1-374), sequence (Q2XVP4 whole entry partner, looked up): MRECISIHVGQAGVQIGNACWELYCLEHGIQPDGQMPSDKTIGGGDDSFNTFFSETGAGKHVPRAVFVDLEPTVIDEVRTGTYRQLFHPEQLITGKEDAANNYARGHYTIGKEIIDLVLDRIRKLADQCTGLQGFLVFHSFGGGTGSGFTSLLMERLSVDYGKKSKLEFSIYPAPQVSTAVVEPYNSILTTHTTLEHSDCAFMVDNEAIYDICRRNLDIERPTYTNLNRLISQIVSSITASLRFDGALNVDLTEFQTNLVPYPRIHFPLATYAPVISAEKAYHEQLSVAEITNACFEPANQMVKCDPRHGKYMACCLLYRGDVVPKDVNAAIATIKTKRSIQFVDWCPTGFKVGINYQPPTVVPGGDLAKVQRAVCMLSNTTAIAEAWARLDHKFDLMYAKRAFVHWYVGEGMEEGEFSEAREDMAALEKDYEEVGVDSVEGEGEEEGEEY
hKIF18A (1-374), sequence (P02554 whole entry partner, looked up): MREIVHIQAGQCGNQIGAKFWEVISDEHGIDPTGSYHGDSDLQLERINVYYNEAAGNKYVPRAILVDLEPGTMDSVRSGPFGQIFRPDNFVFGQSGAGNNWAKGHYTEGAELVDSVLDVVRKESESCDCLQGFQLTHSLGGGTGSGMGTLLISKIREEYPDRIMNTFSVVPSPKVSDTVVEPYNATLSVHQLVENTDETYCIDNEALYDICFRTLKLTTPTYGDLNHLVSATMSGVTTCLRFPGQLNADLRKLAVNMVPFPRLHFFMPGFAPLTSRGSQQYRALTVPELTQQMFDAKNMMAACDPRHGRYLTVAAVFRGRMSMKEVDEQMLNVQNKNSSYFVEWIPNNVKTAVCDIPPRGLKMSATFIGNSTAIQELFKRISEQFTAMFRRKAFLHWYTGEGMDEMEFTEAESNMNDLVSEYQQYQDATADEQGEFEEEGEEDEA
Take `CS(=O)(=O)Nc1ccc2c(c1)C1(CCC3(CC3)CC1)CN2C(=O)c1cccc(S(=O)(=O)NC2CC(F)C2)c1` (centres unmarked) [Compound 204, N-(3-fluorocyclobutyl)-3-(5″- (methylsulfonamido)dispiro [cyclopropane-1,1′-cyclohexane-4′,3″- indoline]-1″-carbonyl)benzenesulfonamide]: the IC50 (usually the midpoint of a concentration-inhibition curve) came out at 13 nM.

Still in this test, the particulars now being: KIF18A microtubule-dependent ATPase activity, biochemical assay.
Molecule `CS(=O)(=O)Nc1ccc2c(c1)C1(CCC3(CC3)CC1)CN2C(=O)c1cccc(S(=O)(=O)NC2C=CCCC2)c1` (centres unmarked) [Compound 196, N-(cyclohex-2-en-1-yl)-3-(5″- (methylsulfonamido)dispiro[cyclopropane-1,1′-cyclohexane-4′,3″-indoline]-1″-carbonyl)benzenesulfonamide] registered an IC50 of 10 nM.
Same read-out and setting: the result for `CC(C)(CO)NS(=O)(=O)c1cccc(C(=O)N2CC3(CCC4(CC4)CC3)c3cc(NS(C)(=O)=O)ccc32)c1` [Compound 220, N-(1-hydroxy-2-methylpropan-2-yl)-3-(5″- (methylsulfonamido)dispiro[cyclopropane-1,1′-cyclohexane-4′,3″-indoline]-1″-carbonyl)benzenesulfonamide] reads 25 nM; that for `O=C(c1cccc(S(=O)(=O)N2CCCCC2)c1)N1CC2(CCCC2)c2c(F)cccc21` [Compound 1′, (4′-fluorospiro[cyclopentane-1,3′-indolin]-1′-yl)(3-(piperidin-1-ylsulfonyl)phenyl)methanone], 2600 nM.
The same measure, in the same setting: with `CS(=O)(=O)Nc1ccc2c(c1)C1(CCCCC1)CN2C(=O)c1cccc(SC2CCCC2)c1` [Compound 146, N-(1′-(3-(cyclopentylthio)benzoyl)spiro[cyclohexane-1,3′-indolin]-5′-yl)methanesulfonamide] the figure was 190 nM; with `CC(NS(=O)(=O)c1cccc(C(=O)N2CC3(CCC4(CC4)CC3)c3cc(NS(C)(=O)=O)ccc32)c1)C1CCC1` (centres unmarked) [Compound 184, N-(1-cyclobutylethyl)-3-(5″- (methylsulfonamido)dispiro[cyclopropane-1,1′-cyclohexane-4′,3″-indoline]-1″-carbonyl)benzenesulfonamide], 33 nM; with `CS(=O)(=O)Nc1ccc2c(c1)C1(CCC3(CC3)CC1)CN2C(=O)c1csc(S(=O)(=O)N2CC3(CCO3)C2)c1` [Compound 283, N-(1″-(5-((1-oxa-6-azaspiro[3.3]heptan-6-yl)sulfonyl)thiophene-3-carbonyl)dispiro[cyclopropane-1,1′-cyclohexane-4′,3″-indolin]-5″- yl)methanesulfonamide], 18 nM.
In turn, `CC(NS(=O)(=O)c1cccc(C(=O)N2CC3(CCC4(CC4)CC3)c3cc(NS(C)(=O)=O)ccc32)c1)C1CC1` (centres unmarked) [Compound 186, N-(1-cyclopropylethyl)-3-(5″- (methylsulfonamido)dispiro[cyclopropane-1,1′-cyclohexane-4′,3″-indoline]-1″-carbonyl)benzenesulfonamide] registered an IC50 of 12 nM.
Still for that read-out and setting: the result for `CS(=O)(=O)Nc1ccc2c(c1)C1(CCC3(CC3)CC1)CN2C(=O)c1csc(C(O)C2CCCC2)c1` (centres unmarked) [Compound 301, N-(1″-(5-(cyclopentyl(hydroxy)methyl)thiophene-3-carbonyl)dispiro[cyclopropane-1,1′-cyclohexane-4′,3″-indolin]-5″-yl)methanesulfonamide] reads 21 nM.
On the same count and under the same terms, with `CC(O)c1ccc2c(c1)C1(CCC3(CC3)CC1)CN2C(=O)c1cccc(S(=O)(=O)NC(C)(C)C)c1` (centres unmarked) [Compound 332, N-(tert-butyl)-3-(5″-(1-hydroxyethyl)dispiro[cyclopropane-1,1′-cyclohexane-4′,3″-indoline]-1″-carbonyl)benzenesulfonamide] the figure was 150 nM; with `CC(C)(C)NS(=O)(=O)c1cccc(C(=O)N2C[C@]3(CC[C@H](C(F)(F)F)CC3)c3cc(NS(C)(=O)=O)ccc32)c1` [Compound 361a], 15 nM.
Still for that read-out and setting: with `CS(=O)(=O)c1ccc2c(c1)C1(CCCCC1)CN2C(=O)c1cccc(S(=O)(=O)N2CCCCC2)c1` [Compound 250, (5′-(methylsulfonyl)spiro[cyclohexane-1,3′-indolin]-1′-yl)(3-(piperidin-1-ylsulfonyl)phenyl)methanone] the figure was 670 nM.
On to `CCN(c1ccc2c(c1)C1(CCC3(CC3)CC1)CN2C(=O)c1cccc(S(=O)(=O)N2CCC(F)(F)CC2)c1)S(C)(=O)=O` [Compound 32, N-(1″-(3-((4,4-difluoropiperidin-1-yl)sulfonyl)benzoyl)dispiro[cyclopropane-1,1′-cyclohexane-4′,3″-indolin]-5″- yl)-N-ethylmethanesulfonamide], for which inhibition was half-maximal at 78 nM (IC50).
On the same count and under the same terms, the result for `CS(=O)(=O)Nc1ccc2c(c1)C1(CCC3(CC3)CC1)CN2C(=O)c1cccc(NC2CCCC2)c1` [Compound 347, N-(1″-(3-(cyclopentylamino)benzoyl)dispiro [cyclopropane-1,1′-cyclohexane-4′,3″- indolin]-5″-yl)methanesulfonamide] reads 280 nM; that for `CS(=O)(=O)Nc1ccc2c(c1)C1(CCC3(CC3)CC1)CN2C(=O)c1cccc(CN2CC(F)(F)C2)c1` [Compound 345, N-(1″-(3-((3,3-difluoroazetidin-1-yl)methyl)benzoyl)dispiro[cyclopropane-1,1′-cyclohexane-4′,3″-indolin]-5″-yl)methanesulfonamide], 58 nM.
Take `C[C@@H](c1cccc(C(=O)N2CC3(CCC4(CC4)CC3)c3cc(NS(C)(=O)=O)ccc32)c1)N1CCC(F)(F)CC1` (single isomer, unassigned) [Compound 341a]: inhibition was half-maximal at 30 nM (IC50).
Same read-out and setting: the result for `CS(=O)(=O)Nc1ccc2c(c1)C1(CCCCC1)CN2C(=O)c1cccc(S(=O)(=O)N2CCCCC2)c1` [Compound 240, N-(1′-(3-(piperidin-1-ylsulfonyl)benzoyl)spiro[cyclohexane-1,3′-indolin]-5′-yl)methanesulfonamide] reads 40 nM.
On the same count and under the same terms, the result for `CC1(NS(=O)(=O)c2cccc(C(=O)N3CC4(CCC5(CC5)CC4)c4cc(NS(C)(=O)=O)ccc43)c2)CSC1` [Compound 226, 3-(5″- (methylsulfonamido)dispiro[cyclopropane-1,1′-cyclohexane-4′,3″-indoline]-1″-carbonyl)-N-(3-methylthietan-3-yl)benzenesulfonamide] reads 13 nM.
The same measure, in the same setting: the result for `CS(=O)(=O)Nc1ccc2c(c1)C1(CCCCC1)CN2C(=O)c1cccc(S(=O)(=O)N2CCC2)c1` [Compound 45, N-(1′-(3-(azetidin-1-ylsulfonyl)benzoyl)spiro[cyclohexane-1,3′-indolin]-5′-yl)methanesulfonamide] reads 270 nM.
Regarding `O=C(c1cccc(S(=O)(=O)NC2CCC2)c1)N1CC2(CCC3(CC3)CC2)c2cc(NS(=O)(=O)CCO)ccc21` [Compound 227, N-cyclobutyl-3-(5″-((2-hydroxyethyl)sulfonamido)dispiro[cyclopropane-1,1′-cyclohexane-4′,3″- indoline]-1″- carbonyl)benzenesulfonamide], it took 7.2 nM to reach half-maximal inhibition (IC50).
Still for that read-out and setting: the result for `CS(=O)(=O)Nc1ccc2c(c1)C1(CCC3(CC3)CC1)CN2C(=O)c1cccc(C(O)CN2CCC(F)(F)CC2)c1` (centres unmarked) [Compound 315, N-(1″-(3-(2-(4,4-difluoropiperidin-1-yl)-1-hydroxyethyl)benzoyl)dispiro[cyclopropane-1,1′-cyclohexane-4′,3″-indolin]-5″-yl)methanesulfonamide] reads 53 nM.
Same read-out and setting: the result for `CC(C)(C)NS(=O)(=O)c1ccc(C(=O)N2CC3(CCC4(CC4)CC3)c3cc(NS(C)(=O)=O)ccc32)o1` [Compound 299, N-(tert-butyl)-5-(5″- (methylsulfonamido)dispiro[cyclopropane-1,1′-cyclohexane-4′,3″-indoline]-1″-carbonyl)furan-2-sulfonamide] reads 14 nM; that for `CS(=O)(=O)Nc1ccc2c(c1)C1(CCC3(CC3)CC1)CN2C(=O)c1cccc([C@H](O)C2CCC2)c1` (single isomer, unassigned) [Compound 313b], 15 nM; that for `CCS(=O)(=O)Nc1ccc2c(c1)C1(CCC3(CC3)CC1)CN2C(=O)c1csc(S(=O)(=O)NC(C)(C)C)c1` [Compound 275, N-(tert-butyl)-4-(5″- (ethylsulfonamido)dispiro[cyclopropane-1,1′-cyclohexane-4′,3″-indoline]-1″- carbonyl)thiophene-2-sulfonamide], 8 nM.
Still for that read-out and setting: the result for `O=C(c1cccc(S(=O)(=O)NC2CC(F)(F)C2)c1)N1CC2(CCC3(CC3)CC2)c2cc(NS(=O)(=O)CCO)ccc21` [Compound 230, N-(3,3-difluorocyclobutyl)-3-(5″-((2-hydroxyethyl)sulfonamido)dispiro [cyclopropane-1,1′-cyclohexane-4′,3″- indoline]-1″- carbonyl)benzenesulfonamide] reads 14 nM; that for `CC1(NS(=O)(=O)c2cccc(C(=O)N3CC4(CCC5(CC5)CC4)c4cc(NS(C)(=O)=O)ccc43)c2)CC(F)(F)C1` [Compound 224, N-(3,3-difluoro-1-methylcyclobutyl)-3-(5″- (methylsulfonamido)dispiro[cyclopropane-1,1′-cyclohexane-4′,3″-indoline]-1″-carbonyl)benzenesulfonamide], 23 nM; that for `CN=S(=O)(c1cccc(C(=O)N2CC3(CCCCC3)c3cc(NS(C)(=O)=O)ccc32)c1)C1CCCC1` (centres unmarked) [Compound 67, N-(1′-(3-(N-methylcyclopentanesulfonimidoyl)benzoyl)spiro[cyclohexane-1,3′-indolin]-5′-yl)methanesulfonamide], 460 nM.
The molecule `CS(=O)(=O)Nc1ccc2c(c1)C1(CCC3(CC3)CC1)CN2C(=O)c1cccc(S(=O)(=O)NC2COC2)c1` [Compound 174, 3-(5″- (methylsulfonamido)dispiro[cyclopropane-1,1′-cyclohexane-4′,3″-indoline]-1″-carbonyl)-N-(oxetan-3-yl)benzenesulfonamide] showed an IC50 of 56 nM.
The same measure, in the same setting: the result for `CC1(NS(=O)(=O)c2cccc(C(=O)N3CC4(CCC5(CC5)CC4)c4cc(NS(C)(=O)=O)ccc43)c2)CC1` [Compound 216, N-(1-methylcyclopropyl)-3-(5″- (methylsulfonamido)dispiro[cyclopropane-1,1′-cyclohexane-4′,3″-indoline]-1″-carbonyl)benzenesulfonamide] reads 9.3 nM.

(Values after patent publication US12084420B2, “Indoline compounds for inhibiting KIF18A” (Volastra Therapeutics, Inc., priority 2021, dated 2024).)
